From PubChem BioAssay (NCI)
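Compound exposure: 48 hours, 5 concentrations, 96-well plates. The concentration for 50% growth inhibition is given as GI50. TGI: total growth inhibition.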

Columns and labels:
Assay in all cases: inhibition of tumour cell growth, NCI panel, 48 h
SNB-75 CNS = tested on: SNB-75 CNS
NCI-H522 lung = tested on: NCI-H522 lung
HL-60(TB) leukemia = tested on: HL-60(TB) leukemia
SN12C renal = tested on: SN12C renal
SK-MEL-28 melanoma = tested on: SK-MEL-28 melanoma
LOX IMVI melanoma = tested on: LOX IMVI melanoma
CCRF-CEM leukemia = tested on: CCRF-CEM leukemia
HCC-2998 colon = tested on: HCC-2998 colon
UACC-62 melanoma = tested on: UACC-62 melanoma
K-562 leukemia = tested on: K-562 leukemia

| SMILES | GI50 (SNB-75 CNS) | TGI (SNB-75 CNS) | GI50 (NCI-H522 lung) | TGI (NCI-H522 lung) | GI50 (HL-60(TB) leukemia) | TGI (HL-60(TB) leukemia) | GI50 (SN12C renal) | TGI (SN12C renal) | GI50 (SK-MEL-28 melanoma) | TGI (SK-MEL-28 melanoma) | GI50 (LOX IMVI melanoma) | TGI (LOX IMVI melanoma) | GI50 (CCRF-CEM leukemia) | TGI (CCRF-CEM leukemia) | GI50 (HCC-2998 colon) | TGI (HCC-2998 colon) | GI50 (UACC-62 melanoma) | TGI (UACC-62 melanoma) | GI50 (K-562 leukemia) | TGI (K-562 leukemia) |
| --- | --- | --- | --- | --- | --- | --- | --- | --- | --- | --- | --- | --- | --- | --- | --- | --- | --- | --- | --- | --- |
| CC(C)(C)n1cc(-c2ccnc(NCCNS(=O)(=O)c3ccc(Br)cc3)c2)c(-c2cccc(O)c2)n1 | 1.36 µM | 3.78 µM | 1.79 µM | 4.04 µM | 0.581 µM | 2.88 µM | 1.72 µM | 3.2 µM | 1.75 µM | 3.26 µM | 1.75 µM | 3.15 µM | 2.69 µM | 18.2 µM | 1.84 µM | 3.53 µM | 1.57 µM | 3.08 µM | 0.573 µM | 2.85 µM |
| Cc1c(C(C)C)cc(OCCO)cc1C(C)C | – | > 100 µM | – | 81.5 µM | – | 56.9 µM | – | 93.1 µM | – | > 100 µM | – | 63.4 µM | – | > 100 µM | – | > 100 µM | – | > 100 µM | – | > 100 µM |
| COc1cc(C(c2cc3c(cc2O)OCO3)N2CCCC2)cc(OC)c1OC (configuration not stated) | – | 32.7 µM | – | 11.5 µM | – | 6.06 µM | – | 45.9 µM | – | 41.4 µM | – | 31.9 µM | – | 5.95 µM | – | 88.1 µM | – | 33.9 µM | – | 21.1 µM |
| CC1Cc2c(N(C)C)ncnc2N(C)c2ccc(Cl)cc21 (configuration not stated) | 2.02 µM | 8.52 µM | 2.79 µM | 35.3 µM | 2.81 µM | 15.8 µM | 10.2 µM | 37.1 µM | 10.8 µM | > 100 µM | 6 µM | 27.2 µM | 2.92 µM | 18 µM | 6.9 µM | 37.3 µM | – | – | 0.781 µM | > 100 µM |
| COC(=O)c1c(C)oc2ccc(OC(C)=O)cc12 | – | > 100 µM | – | > 100 µM | – | > 100 µM | – | > 100 µM | – | > 100 µM | – | > 100 µM | – | > 100 µM | – | > 100 µM | – | > 100 µM | – | > 100 µM |
| O=C(CCCCCCCCCCc1ccccc1)c1c(O)cccc1O | – | 63.8 µM | – | 42.4 µM | – | 71.6 µM | – | 34.6 µM | – | 40.1 µM | – | 72.9 µM | – | 90.8 µM | – | 44.3 µM | – | 36.2 µM | – | 58.7 µM |
| CC[C@]12C=CCN3CC[C@]4(C(=C(C(=O)OC)C1)Nc1cc(O)ccc14)[C@@H]32 | 7.38 µM | 40.2 µM | 15.1 µM | 55.2 µM | 25.8 µM | 72.5 µM | 15.4 µM | 29.7 µM | 17 µM | 42.5 µM | 13.6 µM | 26.7 µM | 25.3 µM | > 100 µM | 14.9 µM | 29.6 µM | 7.18 µM | 22.3 µM | 7.59 µM | > 100 µM |
| CCOC(=O)/C=C1\Nc2ccccc2C(c2ccccc2)=NC1OC(C)=O (configuration not stated) | – | > 100 µM | – | > 100 µM | – | > 100 µM | – | > 100 µM | – | > 100 µM | – | > 100 µM | – | > 100 µM | – | > 100 µM | – | > 100 µM | – | > 100 µM |
| Cc1ccc(NC(=O)CCC(=O)C2CC(=O)CC/C2=N\NC(=O)c2cc3ccccc3cc2O)cc1C (configuration not stated) | – | > 100 µM | – | 39.5 µM | – | 29.9 µM | – | > 100 µM | – | > 100 µM | – | – | – | 58.3 µM | – | 50.1 µM | – | 33.9 µM | – | > 100 µM |
| CCOC(=O)c1[nH]c2c(c1C)-c1[nH]c(=O)c(S(=O)(=O)c3ccccc3)cc1SC2 | 24.8 µM | 86.6 µM | 28.7 µM | > 100 µM | 23.2 µM | > 100 µM | 93.6 µM | > 100 µM | 70 µM | > 100 µM | – | – | 57.8 µM | > 100 µM | > 100 µM | > 100 µM | 46.7 µM | > 100 µM | 23.2 µM | > 100 µM |
| c1ccc(SCCCC(Sc2ccccc2)Sc2ccccc2)cc1 | – | > 100 µM | – | – | – | > 100 µM | – | > 100 µM | – | > 100 µM | – | > 100 µM | – | > 100 µM | – | > 100 µM | – | > 100 µM | – | > 100 µM |
| CC1=C(C#N)C(N)=C2C(C)=C(C#N)C(N)=C12 | – | > 100 µM | – | > 100 µM | – | > 100 µM | – | > 100 µM | – | – | – | > 100 µM | – | > 100 µM | – | > 100 µM | – | > 100 µM | – | > 100 µM |
| O=c1c2ccccc2nc(-c2ccccc2)n1NCC1(O)OCC(O)C(O)C1O (configuration not stated) | – | > 100 µM | – | > 100 µM | – | > 100 µM | – | > 100 µM | – | > 100 µM | – | – | – | > 100 µM | – | > 100 µM | – | > 100 µM | – | > 100 µM |
